How the values were obtained:
Assay in all cases: Test E greenhouse herbicide test, pre- and postemergence
Type in all cases: in vivo
[1] = tested on: momingglory (Ipomoea coccinea); settings: Preemergence
Description: (§1) Seeds of plant species selected from corn (Zea mays), soybean (Glycine max), velvetleaf (Abutilon theophrasti), lambsquarters (Chenopodium album), wild poinsettia (Euphorbia heterophylla), pigweed, palmer (palmer pigweed, Amaranthus palmeri), waterhemp (common waterhemp, Amaranthus rudis), surinam grass (Brachiaria decumbens), crabgrass, large (large crabgrass, Digitaria sanguinalis), crabgrass, Brazilian (Brazilian crabgrass, Digitaria horizontalis), panicum, fall (fall panicum, Panicum dichotomiflorum), foxtail, giant (giant foxtail, Setaria faberii), foxtail, green (green foxtail, Setaria viridis), goosegrass (Eleusine indica), johnsongrass (Sorghum halepense), ragweed (common ragweed, Ambrosia elatior), barnyardgrass (Echinochloa crus-galli), sandbur (southem sandbur, Cenchrus echinatus), arrowleaf sida (Sida rhombifolia), Italian ryegrass (Lolium multiflorum), dayflower (Virginia (VA) dayflower, Commelina virginica), field bindweed (Convolvulus arvensis), momingglory (Ipomoea coccinea), nightshade (eastern black nightshade, Solanum ptycanthum), kochia (Kochia scoparia), nutsedge, yellow (yellow nutsedge, Cyperus esculentus), horseweed (Conyza canadensis), and beggarticks (hairy beggarticks, Bidens pilosa), were planted into a silt loam soil and treated preemergence with test chemicals formulated in a non-phytotoxic solvent mixture which included a surfactant.
(§2) At the same time, plants from these crop and weed species and also waterhemp_RES1, (ALS & Triazine resistant common waterhemp, Amaranthus rudis), and waterhemp_RES2, (ALS & HPPD resistant common waterhemp, Amaranthus rudis) were planted in pots containing Redi-Earth® planting medium (Scotts Company, 14111 Scottslawn Road, Marysville, Ohio 43041) comprising spaghnum peat moss, vermiculite, wetting agent and starter nutrients were treated with postemergence applications of test chemicals formulated in the same manner. Plants ranged in height from 2 to 18 cm for postemergence treatments (1- to 4-leaf stage). Treated plants and controls were maintained in a greenhouse for 14 to 21 d, after which time all species were compared to controls and visually evaluated. Plant response ratings, summarized in Table E, are based on a scale of 0 to 100 where 0 is no effect and 100 is complete control. A dash (-) response means no test result.

[2] = tested on: pigweed, palmer (palmer pigweed, Amaranthus palmeri)
Description: as §1, §2

[3] = tested on: horseweed (Conyza canadensis)
Description: as §1, §2

[4] = tested on: crabgrass, large (large crabgrass, Digitaria sanguinalis); settings: Preemergence
Description: as §1, §2

[5] = tested on: arrowleaf sida (Sida rhombifolia)
Description: as §1, §2

[6] = tested on: panicum, fall (fall panicum, Panicum dichotomiflorum)
Description: as §1, §2

[7] = tested on: soybean (Glycine max)
Description: as §1, §2

[8] = tested on: johnsongrass (Sorghum halepense); settings: Preemergence
Description: as §1, §2

[9] = tested on: crabgrass, Brazilian (Brazilian crabgrass, Digitaria horizontalis)
Description: as §1, §2

[10] = tested on: goosegrass (Eleusine indica); settings: Preemergence
Description: as §1, §2

[11] = tested on: foxtail, giant (giant foxtail, Setaria faberii); settings: Preemergence
Description: as §1, §2

[12] = tested on: barnyardgrass (Echinochloa crus-galli)
Description: as §1, §2

[13] = tested on: field bindweed (Convolvulus arvensis)
Description: as §1, §2

[14] = tested on: surinam grass (Brachiaria decumbens); settings: Preemergence
Description: as §1, §2

[15] = tested on: ragweed (common ragweed, Ambrosia elatior)
Description: as §1, §2

[16] = tested on: nightshade (eastern black nightshade, Solanum ptycanthum); settings: Preemergence
Description: as §1, §2

[17] = 62 g ai/ha, scale 0 to 100 (0 no effect, 100 complete control)
[18] = 125 g ai/ha, scale 0 to 100 (0 no effect, 100 complete control)
[19] = 31 g ai/ha, scale 0 to 100, 0 no effect, 100 complete control
[20] = 250 g ai/ha, visual, scale 0 no effect to 100 complete control
[21] = 62 g ai/ha, Preemergence, scale 0 to 100 (0 no effect, 100 complete control)
[22] = 125 g ai/ha, Preemergence, scale 0 to 100 (0 no effect, 100 complete control)
[23] = Preemergence, 31 g ai/ha, scale 0 to 100, 0 no effect, 100 complete control
[24] = Preemergence, 250 g ai/ha, visual, scale 0 no effect to 100 complete control
[25] = Preemergence, 125 g ai/ha, visual, scale 0 no effect to 100 complete control
[26] = 125 g ai/ha, visual, scale 0 no effect to 100 complete control
[27] = 62 g ai/ha, Postemergence, scale 0 to 100 (0 no effect, 100 complete control)
[28] = 125 g ai/ha, Postemergence, scale 0 to 100 (0 no effect, 100 complete control)
[29] = 250 g ai/ha, Postemergence, scale 0 to 100 (0 no effect, 100 complete control)
[30] = Postemergence, 31 g ai/ha, visual, scale 0 no effect to 100 complete control

Structure (SMILES): Cc1ccc2ccccc2c1-c1c(O)c(I)nn(C)c1=O [Compound 29]
- Plant response rating, Morningglory [1, 17]: 65
- Plant response rating, Morningglory [1, 18]: 80
- Plant response rating, Morningglory [1, 19]: 35
- Plant response rating, Morningglory [1, 20]: 95
- Plant response rating, Pigweed, Palmer [2, 21]: 70
- Plant response rating, Pigweed, Palmer [2, 22]: 100
- Plant response rating, Pigweed, Palmer [2, 23]: 90
- Plant response rating, Pigweed, Palmer [2, 24]: 100
- Plant response rating, Horseweed [3, 21]: 100
- Plant response rating, Horseweed [3, 23]: 100
- Plant response rating, Horseweed [3, 25]: 100
- Plant response rating, Horseweed [3, 24]: 100
- Plant response rating, Crabgrass, Large [4, 17]: 25
- Plant response rating, Crabgrass, Large [4, 19]: 0
- Plant response rating, Crabgrass, Large [4, 26]: 40
- Plant response rating, Crabgrass, Large [4, 20]: 65
- Plant response rating, Arrowleaf Sida [5, 21]: 90
- Plant response rating, Arrowleaf Sida [5, 23]: 70
- Plant response rating, Arrowleaf Sida [5, 25]: 98
- Plant response rating, Arrowleaf Sida [5, 24]: 98
- Plant response rating, Panicum, Fall [6, 21]: 95
- Plant response rating, Panicum, Fall [6, 22]: 98
- Plant response rating, Panicum, Fall [6, 23]: 85
- Plant response rating, Panicum, Fall [6, 24]: 98
- Plant response rating, Soybean [7, 21]: 50
- Plant response rating, Soybean [7, 22]: 70
- Plant response rating, Soybean [7, 23]: 70
- Plant response rating, Soybean [7, 24]: 50
- Plant response rating, Johnsongrass [8, 17]: 70
- Plant response rating, Johnsongrass [8, 19]: 70
- Plant response rating, Johnsongrass [8, 26]: 65
- Plant response rating, Johnsongrass [8, 20]: 100
- Plant response rating, Crabgrass, Brazil [9, 21]: 75
- Plant response rating, Crabgrass, Brazil [9, 23]: 30
- Plant response rating, Crabgrass, Brazil [9, 25]: 70
- Plant response rating, Crabgrass, Brazil [9, 24]: 90
- Plant response rating, Goosegrass [10, 17]: 20
- Plant response rating, Goosegrass [10, 19]: 0
- Plant response rating, Goosegrass [10, 26]: 50
- Plant response rating, Goosegrass [10, 20]: 90
- Plant response rating, Foxtail, Giant [11, 17]: 80
- Plant response rating, Foxtail, Giant [11, 19]: 70
- Plant response rating, Foxtail, Giant [11, 26]: 95
- Plant response rating, Foxtail, Giant [11, 20]: 98
- Plant response rating, Barnyardgrass [12, 21]: 25
- Plant response rating, Barnyardgrass [12, 23]: 0
- Plant response rating, Barnyardgrass [12, 25]: 65
- Plant response rating, Barnyardgrass [12, 24]: 90
- Plant response rating, Field Bindweed [13, 21]: 90
- Plant response rating, Field Bindweed [13, 23]: 80
- Plant response rating, Field Bindweed [13, 25]: 95
- Plant response rating, Field Bindweed [13, 24]: 98
- Plant response rating, Surinam Grass [14, 17]: 95
- Plant response rating, Surinam Grass [14, 18]: 95
- Plant response rating, Surinam Grass [14, 19]: 75
- Plant response rating, Surinam Grass [14, 20]: 100
- Plant response rating, Ragweed [15, 21]: 85
- Plant response rating, Ragweed [15, 22]: 70
- Plant response rating, Ragweed [15, 23]: 90
- Plant response rating, Ragweed [15, 24]: 98
- Plant response rating, Nightshade [16, 17]: 70
- Plant response rating, Nightshade [16, 18]: 85
- Plant response rating, Nightshade [16, 19]: 5
- Plant response rating, Nightshade [16, 20]: 90

Structure (SMILES): Cc1cc2ccccc2c(-c2c(O)c(C)nn(C)c2=O)c1C [Compound 34]
- Plant response rating, Morningglory [1, 17]: 25
- Plant response rating, Morningglory [1, 18]: 35
- Plant response rating, Morningglory [1, 19]: 0
- Plant response rating, Morningglory [1, 20]: 90
- Plant response rating, Pigweed, Palmer [2, 27]: 80
- Plant response rating, Pigweed, Palmer [2, 21]: 0
- Plant response rating, Pigweed, Palmer [2, 28]: 65
- Plant response rating, Pigweed, Palmer [2, 22]: 90
- Plant response rating, Pigweed, Palmer [2, 29]: 75
- Plant response rating, Pigweed, Palmer [2, 30]: 50
- Plant response rating, Pigweed, Palmer [2, 23]: 0
- Plant response rating, Pigweed, Palmer [2, 24]: 90
- Plant response rating, Horseweed [3, 27]: 75
- Plant response rating, Horseweed [3, 28]: 80
- Plant response rating, Horseweed [3, 29]: 90
- Plant response rating, Horseweed [3, 30]: 85
- Plant response rating, Crabgrass, Large [4, 17]: 0
- Plant response rating, Crabgrass, Large [4, 19]: 0
- Plant response rating, Crabgrass, Large [4, 26]: 50
- Plant response rating, Crabgrass, Large [4, 20]: 20
- Plant response rating, Arrowleaf Sida [5, 27]: 60
- Plant response rating, Arrowleaf Sida [5, 21]: 20
- Plant response rating, Arrowleaf Sida [5, 28]: 70
- Plant response rating, Arrowleaf Sida [5, 29]: 75
- Plant response rating, Arrowleaf Sida [5, 30]: 65
- Plant response rating, Arrowleaf Sida [5, 23]: 0
- Plant response rating, Arrowleaf Sida [5, 25]: 65
- Plant response rating, Arrowleaf Sida [5, 24]: 80
- Plant response rating, Panicum, Fall [6, 27]: 65
- Plant response rating, Panicum, Fall [6, 21]: 80
- Plant response rating, Panicum, Fall [6, 28]: 70
- Plant response rating, Panicum, Fall [6, 22]: 90
- Plant response rating, Panicum, Fall [6, 29]: 60
- Plant response rating, Panicum, Fall [6, 30]: 50
- Plant response rating, Panicum, Fall [6, 23]: 70
- Plant response rating, Panicum, Fall [6, 24]: 95
- Plant response rating, Soybean [7, 27]: 40
- Plant response rating, Soybean [7, 21]: 35
- Plant response rating, Soybean [7, 28]: 70
- Plant response rating, Soybean [7, 22]: 15
- Plant response rating, Soybean [7, 29]: 60
- Plant response rating, Soybean [7, 30]: 35
- Plant response rating, Soybean [7, 23]: 0
- Plant response rating, Soybean [7, 24]: 0
- Plant response rating, Johnsongrass [8, 17]: 0
- Plant response rating, Johnsongrass [8, 19]: 0
- Plant response rating, Johnsongrass [8, 26]: 0
- Plant response rating, Johnsongrass [8, 20]: 0
- Plant response rating, Crabgrass, Brazil [9, 27]: 40
- Plant response rating, Crabgrass, Brazil [9, 21]: 10
- Plant response rating, Crabgrass, Brazil [9, 28]: 50
- Plant response rating, Crabgrass, Brazil [9, 29]: 50
- Plant response rating, Crabgrass, Brazil [9, 30]: 40
- Plant response rating, Crabgrass, Brazil [9, 23]: 0
- Plant response rating, Crabgrass, Brazil [9, 25]: 80
- Plant response rating, Crabgrass, Brazil [9, 24]: 80
- Plant response rating, Goosegrass [10, 17]: 5
- Plant response rating, Goosegrass [10, 19]: 5
- Plant response rating, Goosegrass [10, 26]: 10
- Plant response rating, Goosegrass [10, 20]: 10
- Plant response rating, Foxtail, Giant [11, 17]: 40
- Plant response rating, Foxtail, Giant [11, 19]: 5
- Plant response rating, Foxtail, Giant [11, 26]: 40
- Plant response rating, Foxtail, Giant [11, 20]: 65
- Plant response rating, Barnyardgrass [12, 27]: 40
- Plant response rating, Barnyardgrass [12, 21]: 0
- Plant response rating, Barnyardgrass [12, 28]: 40
- Plant response rating, Barnyardgrass [12, 29]: 40
- Plant response rating, Barnyardgrass [12, 30]: 30
- Plant response rating, Barnyardgrass [12, 23]: 0
- Plant response rating, Barnyardgrass [12, 25]: 35
- Plant response rating, Barnyardgrass [12, 24]: 65
- Plant response rating, Field Bindweed [13, 27]: 80
- Plant response rating, Field Bindweed [13, 21]: 50
- Plant response rating, Field Bindweed [13, 28]: 80
- Plant response rating, Field Bindweed [13, 29]: 95
- Plant response rating, Field Bindweed [13, 30]: 70
- Plant response rating, Field Bindweed [13, 23]: 5
- Plant response rating, Field Bindweed [13, 25]: 40
- Plant response rating, Field Bindweed [13, 24]: 60
- Plant response rating, Surinam Grass [14, 17]: 75
- Plant response rating, Surinam Grass [14, 18]: 95
- Plant response rating, Surinam Grass [14, 19]: 5
- Plant response rating, Surinam Grass [14, 20]: 80
- Plant response rating, Ragweed [15, 27]: 85
- Plant response rating, Ragweed [15, 21]: 75
- Plant response rating, Ragweed [15, 28]: 90
- Plant response rating, Ragweed [15, 22]: 100
- Plant response rating, Ragweed [15, 29]: 100
- Plant response rating, Ragweed [15, 30]: 90
- Plant response rating, Ragweed [15, 23]: 70
- Plant response rating, Ragweed [15, 24]: 100
- Plant response rating, Nightshade [16, 17]: 25
- Plant response rating, Nightshade [16, 18]: 98
- Plant response rating, Nightshade [16, 19]: 0
- Plant response rating, Nightshade [16, 20]: 95
